These results are taken from patent US11851391B2, “Antifungal compounds and methods of forming the same” (University of Kentucky Research Foundation, priority 2018, dated 2023).

The subject of series [1] is Aspergillus nidulans ATCC 38163 (strain L). As to the kind of experiment: MIC determination against filamentous fungi (CLSI M38-A2). In kind it is cell-based. To be noted: Aspergillus nidulans, ATCC38163, 48 h, MIC-0, 48 h at 35° C., read-out: MIC. An outline of the steps: (§1)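 MIC-0, meaning no visible growth relative to growth control, was scored after 48 h at 35° C, in triplicate. Hemocytometer-counted spores from potato dextrose agar were inoculated at 5×10^5 CFU/mL final. The medium was MOPS-buffered (0.165 M) RPMI 1640 at pH 7.0, following CLSI M38-A2.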

Series [2] relates to Aspergillus terreus ATCC MYA-3633 (strain M). The series is described as above. The settings on record: Aspergillus terreus, 48 h, MIC-0, 48 h at 35° C., read-out: MIC. The class given is cell-based. An outline of the steps:
as §1

In series [3] the test system is Aspergillus flavus ATCC MYA-3631 (strain K). Described as above. The class given is cell-based. To be noted: Aspergillus flavus, 48 h, MIC-0, 48 h at 35° C., read-out: MIC. An outline of the steps:
as §1

The test system of series [4] is C. albicans ATCC 90819(R) (strain D). As to the kind of experiment: MIC determination, in vitro antifungal assay (CLSI M27-A3). To be noted: Candida albicans, ATCC90819, 48 h, MIC-0, 48 h at 35° C., read-out: MIC. In kind it is cell-based, Candida albicans. An outline of the steps: (§2)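 The read-out is MIC-0, the minimum drug concentration yielding complete inhibition of yeast growth. Testing followed CLSI M27-A3 with minor changes, using cells at 2-4×10^3 CFU/mL in MOPS-buffered RPMI 1640 (pH 7.0) at 35° C, with DMSO under 1.25%.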

Series [5] has as its system C. albicans ATCC 64124(R) (strain B). Described as above. The class given is cell-based, Candida albicans. To be noted: Candida albicans, read-out: MIC. An outline of the steps:
as §2

Series [6] concerns C. albicans ATCC MYA-2310(S) (strain E). The description is as above. The class given is cell-based, Candida albicans. The settings on record: Candida albicans, read-out: MIC. An outline of the steps: as §2
The test system of series [7] is C. albicans ATCC MYA-1237(R) (strain F). The description is as above. The class given is cell-based, Candida albicans. To be noted: Candida albicans, read-out: MIC. Put shortly:
as §2

The test system of series [8] is Candida albicans ATCC 10231(R) (strain A). The description is as above. The class given is cell-based. To be noted: Candida albicans, ATCC10231, 48 h, MIC-0 (no visible growth), 48 h at 35° C., read-out: MIC. Put shortly:
as §2

Series [9] has as its system Candida parapsilosis ATCC 22019 (strain J). The description is as above. In kind it is cell-based. To be noted: Lodderomyces parapsilosis, read-out: MIC. An outline of the steps: as §2
Series [10] has as its system C. albicans ATCC MYA-2876(S) (strain C). The series is described as above. The class given is cell-based, Candida albicans. To be noted: Candida albicans, 48 h, MIC-0, 48 h at 35° C., read-out: MIC. Put shortly:
(§3)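 Inoculum 2-4×10^3 CFU/mL from overnight YPD culture (OD600 0.12 ≈ 1×10^6 CFU/mL). DMSO <1.25% final.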

Series [11] has as its system C. albicans ATCC MYA-1003(R) (strain G). The series is described as above. The class given is cell-based, Candida albicans. The settings on record: Candida albicans, 48 h, MIC-0, 48 h at 35° C., read-out: MIC. An outline of the steps: as §3
The subject of series [12] is various bacterial strains, including Listeria monocytogenes, methicillin-resistant Staphylococcus aureus, and vancomycin-resistant enterococci. Nature of the series: Antibacterial activity. In kind it is cell-based. The source says: The activity of N,N′-diaryl-bishydrazones 7-22 was explored against various bacterial strains, including Listeria monocytogenes, methicillin-resistant Staphylococcus aureus, and vancomycin-resistant enterococci.

Series [13] relates to Candida krusei ATCC 6258 (strain I). Nature of the series: MIC determination, in vitro antifungal assay (CLSI M27-A3). In kind it is cell-based. To be noted: Pichia kudriavzevii, ATCC6258, 48 h, MIC-0, 48 h at 35° C., read-out: MIC. Put shortly:
as §3

Series [14] deals with Candida glabrata ATCC 2001 (strain H). The description is as above. In kind it is cell-based. The settings on record: MIC-0, 48 h at 35° C. Put shortly: as §3
The subject of series [15] is various yeast strains and filamentous fungi (strains A-M). Nature of the series: Antifungal activity over the whole panel (summary of MIC data). In kind it is cell-based, Candida and Aspergillus strains. Here is the method: The activity of N,N′-diaryl-bishydrazones 7-22 was tested against a panel of seven strains of C. albicans: ATCC 10231(R) (A), ATCC 64124(R) (B), ATCC MYA-2876(S) (C), ATCC 90819(R) (D), ATCC MYA-2310(S) (E), ATCC MYA-1237(R) (F), and ATCC MYA-1003(R) (G). The activity of these bishydrazones 7-22 was also explored against a panel of three non-albicans Candida strains: C. glabrata ATCC 2001 (H), C. krusei ATCC 6258 (I), and C. parapsilosis ATCC 22019 (J). Finally, the activity of these bishydrazones 7-22 was explored against three Aspergillus strains: A. flavus ATCC MYA-3631 (K), A. nidulans ATCC 38163 (L), and A. terreus ATCC MYA-3633 (M).
The MIC values of compounds 7a-24c against yeast cells (strains A-J) were determined in 96-well plates as described in the CLSI document M27-A3 with minor modifications. A single colony of freshly prepared yeast cells was used to inoculate 5 mL of yeast extract peptone dextrose (YPD) broth prior to incubation overnight with shaking at 200 rpm at 35° C. From the actively growing yeast culture, 100 μL were then transferred to 900 μL of sterile ddH2O and re-adjusted to achieve OD600 of 0.12 (˜1×10^6 CFU/mL). The cell suspension was further diluted to achieve 2-4×10^3 CFU/mL in RPMI 1640 medium. […] The final concentration of DMSO was ensured to be <1.25% in all experiments. The MIC values for compounds 7a-24c and CAS were defined as the minimum drug concentration that yielded complete inhibition (also known as MIC-0).
Similarly, the MIC values of compounds 7a-24c, as well as that of the two control drugs against filamentous fungi (strains K-M) were determined as previously described in CLSI document M38-A2. Spores were harvested from sporulating cultures growing on potato dextrose agar (PDA) by filtration through sterile glass wool and enumerated by using a hemocytometer to obtain the desired inoculum size. […] Spore suspensions were added to the wells to afford a final concentration of 5×10^5 CFU/mL. The plates were incubated at 35° C. for 48 h. The MIC values of compounds 7a-24c and CAS against filamentous fungi were based on the complete inhibition of growth when compared to the growth control (MIC-0). […] Each test was performed in triplicate.

For series [16], the system named is murine red blood cells (mRBCs). The settings on record: mouse, 60 min. As for the experimental part: Thus, the hemolytic activity for these bishydrazones was investigated against murine red blood cells (mRBCs).
Murine red blood cells (mRBCs) were prepared by suspending 1 mL of murine blood in 3 mL of PBS prior to centrifugation at 1,000 rpm for 5 min. The mRBCs were washed four times in PBS and resuspended in the same buffer to a final concentration of 10^7 mRBC/mL. […] The tubes were incubated at 37° C. for 60 min. […] Eppendorf tubes containing 200 μL of ddH2O and 2 μL of 1% v/v Triton™ X-100 served as negative (blank) and positive controls, respectively. The percentage of hemolysis was calculated using the following equation: % hemolysis=[(absorbance of sample)−(absorbance of blank)]×100/(absorbance of positive control).

Series [17] has as its system C. albicans ATCC 90819(R) (strain D). Nature of the series: MIC determination, in vitro antifungal assay (CLSI M27-A3). In kind it is cell-based. To be noted: Candida albicans, ATCC90819, strain D; MIC-2 (50% growth inhibition), reported for VOR.
Setting [18] is: MIC-2 (50% growth inhibition), reported for VOR.

Each structure is given as a SMILES string. ≈ marks a conversion by molar mass, not a printed value. Entries after “also recorded” stand apart in the source; their conditions may differ. Read-outs that look alike come from different tables or passages of the source. Where only a bound is given, the exact number is not on record here.

The term MIC denotes the smallest concentration in the dilution series that meets the test's criterion for growth inhibition. Take `CC(C)(C)N/N=C/c1ccc(-c2ccc(/C=N/NC(C)(C)C)cc2)cc1` [Compound 23b]: the MIC in series [1] was 31.3 mg/L (≈ 89.3 µM); in [2], above 31.3 mg/L; in series [3], above 31.3 mg/L; in [4], above 31.3 mg/L; in series [5] (ATCC64124, 48 h, strain B, MIC-0, 48 h at 35° C.), 31.3 mg/L (≈ 89.3 µM); in series [6] (48 h, MIC-0, 48 h at 35° C.), 31.3 mg/L (≈ 89.3 µM). The MIC in [7] (48 h, MIC-0, 48 h at 35° C.) is 31.3 mg/L (≈ 89.3 µM); in series [8], 31.3 mg/L (≈ 89.3 µM); in series [9] (ATCC22019, 48 h, strain J, MIC-0, 48 h at 35° C.) it was above 31.3 mg/L; in [10], above 31.3 mg/L; in series [11], above 31.3 mg/L; in series [13], 31.3 mg/L (≈ 89.3 µM). Further, the MIC in [14] is 15.6 mg/L (≈ 44.5 µM); in [14] (Nakaseomyces glabratus, ATCC2001, 48 h, read-out: MIC), 15.6 mg/L (≈ 44.5 µM); in series [15] (against all fungal strains tested, with named exceptions, read-out: antifungal activity class based on MIC values), at least 31.3 mg/L. Besides, in series [12], the “antibacterial activity (in words)” value is on record as “neither the N,N′-diaryl-bishydrazones 7-22 nor the N,N′-di-tert-butyl-bishydrazone 23b displayed antibacterial activity; also recorded: Neither the N,N′-diaryl-bishydrazones 7-22 or the N,N′-dialkyl-bishydrazone 23b displayed antibacterial activity”. Moreover, the “antifungal activity (in words)” value in series [15] (over the fungal strains tested, based on MIC data of Table 1) is “inactive”.
On to `C[C@@H](c1ncncc1F)[C@](O)(Cn1cncn1)c1ccc(F)cc1F` [VOR, voriconazole, reference compound], for which the MIC in [1] was above 31.3 mg/L; in series [2], above 31.3 mg/L; in series [3] it was above 31.3 mg/L; in series [5] (ATCC64124, strain B, MIC-2 (50% growth inhibition), reported for VOR), 0.24 mg/L (≈ 0.687 µM); in series [6] (setting [18]), 0.12 mg/L (≈ 0.344 µM); in series [7] (setting [18]) it was 0.24 mg/L (≈ 0.687 µM). Also, the MIC in [8] came to 0.975 mg/L (≈ 2.79 µM); in [9] (ATCC22019, strain J, MIC-2 (50% growth inhibition), reported for VOR) it was 1.95 mg/L (≈ 5.58 µM); in series [17], 0.12 mg/L (≈ 0.344 µM). Besides, the “Percentage of hemolysis (±SDEV)” value was 10.3 ± 2.1% in series [16] (0.975 μg/mL); 6.3 ± 1.9% in series [16] (1.95 μg/mL); 7.5 ± 0.5% in series [16] (3.9 μg/mL); 11.4 ± 10.9% in [16] (7.8 μg/mL); 2.8 ± 1.3% in series [16] (15.6 μg/mL).
